Each compound was assayed on RSV Long strain (assay: Viral cytopathic effect (CPE) assay, anti-RSV activity). Conditions: human respiratory syncytial virus, 144 h, RSV Long strain (ATCC); cell viability after 6 days, Cell Counting kit-8.
Assay type: cell-based, Respiratory Syncytial Virus
In short: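 EC50 was derived from CCK-8 viability at 450/630 nm measured 6 days post-infection. Infection used enough RSV Long strain for approximately 80–90% cytopathic effect, in the presence of half-log serially diluted compound. Cells were plated the day before at 6×10^3 per well in DMEM/10% FBS.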
`COc1ccc2c(c1)CN(c1cc(NCC3(CN)COC3)c3ccccc3n1)CCS2(=O)=O` [Example 3-4, N-{[3-(Aminomethyl)oxetan-3-yl]methyl}-2-(7-methoxy-1,1-dioxido-2,3-dihydro-1,4-benzothiazepin-4(5H)-yl)-quinolin-4-amine] was tested, and the EC50 was 0.006 µM. For `Cc1ccc2nc(N3CCS(=O)(=O)c4ccccc4C3)cc(NCC3(CO)COC3)c2c1` [Example 3-9, [3-({[2-(1,1-Dioxido-2,3-dihydro-1,4-benzothiazepin-4(5H)-yl)-6-methylquinolin-4-yl]amino}methyl)oxetan-3-yl]methanol], the EC50 was 0.248 µM. For `Cc1ccc2nc(N3CCS(=O)(=O)c4ccccc4C3)cc(NCC(C)(C)N)c2c1` [Example 5-3, N˜1˜-[2-(1,1-Dioxido-2,3-dihydro-1,4-benzothiazepin-4(5H)-yl)-6-methylquinolin-4-yl]-2-methylpropane-1,2-diamine], the EC50 was 0.015 µM. Compound `Cc1ccc2nc(N3CCS(=O)(=O)c4ccccc4C3)cc(NC(=O)[C@@H]3CCCN3)c2c1` [Example 27, N-[2-(1,1-Dioxido-2,3-dihydro-1,4-benzothiazepin-4(5H)-yl)-6-methylquinolin-4-yl]prolinamide] has an EC50 of 2.39 µM. `Cc1ccc2nc(N3CCS(=O)(=O)c4ccccc4C3)nc(N[C@@H]3CNC[C@H]3F)c2c1` (relative stereo) [Example 92-2, N-(trans-4-Fluoropyrrolidin-3-yl)-6-methyl-2-(1,1-dioxido-2,3-dihydro-1,4-benzothiazepin-4(5H)-yl)quinazolin-4-amine] was tested, and the EC50 was 0.019 µM. Compound `Cc1ccc2nc(N3CCS(=O)(=O)c4ccccc4C3)cc(N3C[C@@H]4OC(N)=N[C@@H]4C3)c2c1` (relative stereo) [Example 38-5, cis-5-[2-(1,1-Dioxido-2,3-dihydro-1,4-benzothiazepin-4(5H)-yl)-6-methylquinolin-4-yl]-4,5,6,6a-tetrahydro-3aH-pyrrolo[3,4-d][1,3]oxazol-2-amine] has an EC50 of 6.65 µM. With `Cc1ccc2nc(N3CCS(=O)(=O)c4ccccc4C3)cc(NCC[S+](C)[O-])c2c1` (stereo not shown) [Example 74, 2-(1,1-Dioxido-2,3-dihydro-1,4-benzothiazepin-4(5H)-yl)-6-methyl-N-[2-(methylsulfinyl)ethyl]quinolin-4-amine] the EC50 was 1.94 µM. Work on `N[C@@H]1CN(c2cc(N3CC[S+]([O-])c4ccccc4C3)nc3ccc(Cl)cc23)C[C@H]1F` (relative stereo) [Example 19-7, trans-1-[6-Chloro-2-(1-oxido-2,3-dihydro-1,4-benzothiazepin-4(5H)-yl)quinolin-4-yl]-4-fluoropyrrolidin-3-amine] yielded an EC50 of 6.86 µM. In the case of `NC1(CNc2cc(N3CCS(=O)(=O)c4ccc(F)cc4C3)nc3ccc(Cl)cc23)COC1` [Example 3-3, N-[(3-Aminooxetan-3-yl)methyl]-6-chloro-2-(7-fluoro-1,1-dioxido-2,3-dihydro-1,4-benzothiazepin-4(5H)-yl)quinolin-4-amine], the EC50 is reported as 3.55 µM. `Cc1ccc2nc(N3CCS(=O)(=O)c4ccccc4C3)cc(NC(=O)c3ccccc3)c2c1` [Example 3-59, N-[2-(1,1-Dioxido-2,3-dihydro-1,4-benzothiazepin-4(5H)-yl)-6-methylquinolin-4-yl]benzamide] showed an EC50 of 1.08 µM. `CC(=O)Nc1nc(N2CCS(=O)(=O)c3ccccc3C2)nc2ccc(C)cc12` [Example 63-4, N-[2-(1,1-Dioxido-2,3-dihydro-1,4-benzothiazepin-4(5H)-yl)-6-methylquinazolin-4-yl]acetamide] gave an EC50 of 0.797 µM. Work on `Cc1ccc2nc(N3CCS(=O)(=O)c4ccccc4C3)cc(NCC3(N)CCC3)c2c1` [Example 3-54, N-[(1-Aminocyclobutyl)methyl]-2-(1,1-dioxido-2,3-dihydro-1,4-benzothiazepin-4(5H)-yl)-6-methylquinolin-4-amine] yielded an EC50 of 0.114 µM. Compound `Cc1ccc2nc(N3CCS(=O)(=O)c4ccccc4C3)cc(NCC(C)(O)CO)c2c1` (stereo not shown) [Example 67, 3-{[2-(1,1-Dioxido-2,3-dihydro-1,4-benzothiazepin-4(5H)-yl)-6-methylquinolin-4-yl]amino}-2-methylpropane-1,2-diol] has an EC50 of 0.585 µM. For `COCCNc1cc(N2CCS(=O)(=O)c3ccccc3C2)nc2ccc(C)cc12` [Example 9-26, 2-(1,1-Dioxido-2,3-dihydro-1,4-benzothiazepin-4(5H)-yl)-N-(2-methoxyethyl)-6-methylquinolin-4-amine], the EC50 was 7.2 µM. Compound `NC1(CNc2nc(N3CC[S+]([O-])c4ccccc4C3)nc3ccccc23)COC1` (stereo not shown) [Example 57-2, N-[(3-Aminooxetan-3-yl)methyl]-2-(1-oxido-2,3-dihydro-1,4-benzothiazepin-4(5H)-yl)quinazolin-4-amine] has an EC50 of 0.018 µM. `Cc1ccc2nc(N3CCS(=O)(=O)c4ccccc4C3)cc(NC(=O)C3CCCCN3)c2c1` (stereo not shown) [Example 47-5, N-[2-(1,1-Dioxido-2,3-dihydro-1,4-benzothiazepin-4(5H)-yl)-6-methylquinolin-4-yl]piperidine-2-carboxamide] showed an EC50 of 0.835 µM. With `Cc1ccc2nc(N3CCC(F)(F)c4ccccc4C3)nc(NCC3(N)CS(=O)(=O)C3)c2c1` [Example 116-2, N-[(3-Amino-1,1-dioxidothietan-3-yl)methyl]-2-(5,5-difluoro-1,3,4,5-tetrahydro-2H-2-benzazepin-2-yl)-6-methylquinazolin-4-amine] the EC50 was 0.309 µM. In the case of `Cc1ccc2nc(N3CCS(=O)(=O)c4ccccc4C3)cc(NCCS(C)(=N)=O)c2c1` (stereo not shown) [Example 77, 2-(1,1-Dioxido-2,3-dihydro-1,4-benzothiazepin-4(5H)-yl)-6-methyl-N-[2-(S-methylsulfonimidoyl)ethyl]quinolin-4-amine], the EC50 is reported as 8.78 µM. In the case of `Cc1ccc2nc(N3CCS(=O)(=O)c4ccccc4C3)cc(NCC(C)C(N)=O)c2c1` (stereo not shown) [Example 36-3, 3-{[2-(1,1-Dioxido-2,3-dihydro-1,4-benzothiazepin-4(5H)-yl)-6-methylquinolin-4-yl]amino}-2-methylpropanamide], the EC50 is reported as 2.15 µM. In the case of `NCCNc1cc(N2CCS(=O)(=O)c3ccccc3C2)nc2ccc([N+](=O)[O-])cc12` [Example 9-20, N-[2-(1,1-Dioxido-2,3-dihydro-1,4-benzothiazepin-4(5H)-yl)-6-nitroquinolin-4-yl]ethane-1,2-diamine], the EC50 is reported as 0.76 µM. With `Cc1ccc2nc(N3CCS(=O)(=O)c4ccccc4C3)cc(NCC(F)CN)c2c1` (stereo not shown) [Example 3-21, N-[2-(1,1-Dioxido-2,3-dihydro-1,4-benzothiazepin-4(5H)-yl)-6-methylquinolin-4-yl]-2-fluoropropane-1,3-diamine] the EC50 was 0.006 µM. For `NCCNc1cc(N2CCOc3ccccc3C2)nc2ccccc12` [Example 134, N-[2-(2,3-Dihydro-1,4-benzoxazepin-4(5H)-yl)quinolin-4-yl]ethane-1,2-diamine], the EC50 was 0.25 µM. `Cc1ccc2nc(N3CCS(=O)(=O)c4ccccc4C3)cc(N[C@@H](C)C(N)=O)c2c1` [Example 36-4, N^˜2^˜-[2-(1,1-dioxido-2,3-dihydro-1,4-benzothiazepin-4(5H)-yl)-6-methylquinolin-4-yl]-L-alaninamide] was tested, and the EC50 was 0.138 µM. Work on `Cc1ccc2nc(N3CCS(=O)(=O)c4ccccc4C3)cc(NCCN(C)C)c2c1` [Example 3-32, N′-[2-(1,1-Dioxido-2,3-dihydro-1,4-benzothiazepin-4(5H)-yl)-6-methylquinolin-4-yl]-N,N-dimethylethane-1,2-diamine] yielded an EC50 of 0.037 µM. With `NCCNc1cc(N2CCCc3ccccc3C2)nc2ccc(C(F)(F)F)cc12` [Example 118-19, N-[2-(1,3,4,5-Tetrahydro-2H-2-benzazepin-2-yl)-6-(trifluoromethyl)quinolin-4-yl]ethane-1,2-diamine] the EC50 was 1.24 µM. In the case of `Cc1ccc2nc(N3CCS(=O)(=O)c4ccccc4C3)cc(NCCN3CCS(=O)(=O)CC3)c2c1` [Example 5-1, 2-(1,1-Dioxido-2,3-dihydro-1,4-benzothiazepin-4(5H)-yl)-N-[2-(1,1-dioxidothiomorpholin-4-yl)ethyl]-6-methylquinolin-4-amine], the EC50 is reported as 9.2 µM. Work on `Cc1ccc2nc(N3CCS(=O)(=O)c4ccccc4C3)cc(NC[C@H](O)CO)c2c1` [Example 3-10, (2S)-3-{[2-(1,1-Dioxido-2,3-dihydro-1,4-benzothiazepin-4(5H)-yl)-6-methylquinolin-4-yl]amino}propane-1,2-diol] yielded an EC50 of 0.053 µM. For `Cc1ccc2nc(N3CCS(=O)(=O)c4ccccc4C3)nc(NCC(C)(C)N)c2c1` [Example 60, N^˜1^˜-[2-(1,1-Dioxido-2,3-dihydro-1,4-benzothiazepin-4(5H)-yl)-6-methylquinazolin-4-yl]-2-methylpropane-1,2-diamine], the EC50 was 0.018 µM. `COc1ccc2c(c1)CN(c1cc(NCC3(N)COC3)c3cc(C)ccc3n1)CCS2(=O)=O` [Example 1-5, N-[(3-Aminooxetan-3-yl)methyl]-2-(7-methoxy-1,1-dioxido-2,3-dihydro-1,4-benzothiazepin-4(5H)-yl)-6-methylquinolin-4-amine] was tested, and the EC50 was 0.004 µM. For `NCC(=O)Nc1cc(N2CCCc3ccccc3C2)nc2ccccc12` [Example 127, N-[2-(1,3,4,5-Tetrahydro-2H-2-benzazepin-2-yl)quinolin-4-yl]glycinamide], the EC50 was 6.25 µM. `Cc1cccc2c(NCCCCCCCCCN)cc(N3CCS(=O)(=O)c4ccccc4C3)nc12` [Example 12-3, N-[2-(1,1-Dioxido-2,3-dihydro-1,4-benzothiazepin-4(5H)-yl)-8-methylquinolin-4-yl]nonane-1,9-diamine] showed an EC50 of 6.26 µM. Compound `Cc1ccc2nc(N3CC(=O)Nc4ccccc4C3)cc(NCCN)c2c1` [Example 133-1, 4-{4-[(2-Aminoethyl)amino]-6-methylquinolin-2-yl}-1,3,4,5-tetrahydro-2H-1,4-benzodiazepin-2-one] has an EC50 of 0.31 µM. Compound `CNC(=O)CNc1cc(N2CCS(=O)(=O)c3ccccc3C2)nc2ccc(C)cc12` [Example 36-6, N^˜2^˜-[2-(1,1-Dioxido-2,3-dihydro-1,4-benzothiazepin-4(5H)-yl)-6-methylquinolin-4-yl]-N-methylglycinamide] has an EC50 of 0.264 µM. For `CC(=O)NCCCNc1cc(N2CCS(=O)(=O)c3ccccc3C2)nc2ccc(C)cc12` [Example 63-3, N-(3-{[2-(1,1-Dioxido-2,3-dihydro-1,4-benzothiazepin-4(5H)-yl)-6-methylquinolin-4-yl]amino}propyl)acetamide], the EC50 was 0.007 µM.

From patent US8871756B2 (Hoffmann-La Roche Inc., priority 2011, dated 2014)
